Assay results from patent US9980943B2, “Methods of treating muscular dystrophy” (BOARD OF REGENTS OF THE NEVADA SYSTEM OF HIGHER EDUCATION, …, priority 2013, dated 2018).
Like-named read-outs stand apart in the source and are kept apart here.

Key:
Format in all cases: cell-based, mouse
[1] = test system: β-galactosidase in CMV-LacZ C2C12 myotubes; assay: CMV-LacZ secondary screen in C2C12 myotubes (β-Gal stabilizing assay); conditions: for CMV-LACZ in Myotubes (β-galactosidase activity relative to DMSO): CMV-LacZ C2C12 myotubes, 96-well format
Procedure, shortened: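 Stable CMV-LacZ C2C12 clone; six-point curve 0.5–40 μM; duplicates.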

[2] = test system: α7 integrin (LacZ reporter in α7+/LacZ myotubes); assay: Myotube α7 integrin FDG assay (Burkin assay in myotubes, 96-well); conditions: myotubes; for fold induction at 0.5 µM / fold induction at 1 µM / fold induction at 5 µM / fold induction at 10 µM / fold induction at 20 µM / fold induction at 40 µM: Mus musculus, Myotube
[3] = test system: α7 integrin (LacZ reporter in α7βgal+/− myoblasts); assay: Myoblast α7+/LacZ integrin FDG assay (Burkin assay in myoblasts, 96-well); conditions: α7+/LacZ myoblasts, 96-well; for fold induction at 0.5 µM / fold induction at 1 µM / fold induction at 5 µM / fold induction at 10 µM / fold induction at 20 µM / fold induction at 40 µM: Mus musculus, Myoblast, 48 h
[4] = 5 uM, C2C12 CMV-LacZ myotubes, fold relative to DMSO
[5] = 10 uM, C2C12 CMV-LacZ myotubes, fold relative to DMSO
[6] = 20 uM, C2C12 CMV-LacZ myotubes, fold relative to DMSO
[7] = 40 uM, C2C12 CMV-LacZ myotubes, fold relative to DMSO
[8] = 0.5 uM, read-out: Burkin Assay in Myotubes (signal relative to DMSO)
[9] = 1 uM, read-out: Burkin Assay in Myotubes (signal relative to DMSO)
[10] = 5 uM, read-out: Burkin Assay in Myotubes (signal relative to DMSO)
[11] = 10 uM, read-out: Burkin Assay in Myotubes (signal relative to DMSO)
[12] = 20 uM, read-out: Burkin Assay in Myotubes (signal relative to DMSO)
[13] = 40 uM, read-out: Burkin Assay in Myotubes (signal relative to DMSO)
[14] = 0.5 uM, read-out: Burkin Assay in Myoblasts, value relative to DMSO
[15] = 1 uM, read-out: Burkin Assay in Myoblasts, value relative to DMSO
[16] = 5 uM, read-out: Burkin Assay in Myoblasts, value relative to DMSO
[17] = 10 uM, read-out: Burkin Assay in Myoblasts, value relative to DMSO
[18] = 20 uM, read-out: Burkin Assay in Myoblasts, value relative to DMSO
[19] = 40 uM, read-out: Burkin Assay in Myoblasts, value relative to DMSO

COc1ccc(Nc2ncnc3ccc(C)cc23)cc1 [MLS001212498-01]
fold induction at 5 µM ([1]; Mus musculus, C2C12, read-out: CMV-LACZ in Myotubes, signal relative to DMSO, 5 uM, C2C12 CMV-LacZ myotubes, fold relative to DMSO): 0.85
fold induction at 10 µM ([1]; Mus musculus, C2C12, read-out: CMV-LACZ in Myotubes, signal relative to DMSO, 10 uM, C2C12 CMV-LacZ myotubes, fold relative to DMSO): 0.784
fold induction at 20 µM ([1]; Mus musculus, C2C12, read-out: CMV-LACZ in Myotubes, signal relative to DMSO, 20 uM, C2C12 CMV-LacZ myotubes, fold relative to DMSO): 0.749
fold induction at 40 µM ([1]; Mus musculus, C2C12, read-out: CMV-LACZ in Myotubes, signal relative to DMSO, 40 uM, C2C12 CMV-LacZ myotubes, fold relative to DMSO): 0.848
fold induction at 0.5 µM ([2]; 0.5 uM, read-out: Burkin Assay in Myotubes, α7 integrin LacZ reporter signal relative to DMSO): 0.941
fold induction at 1 µM ([2]; 1 uM, read-out: Burkin Assay in Myotubes, α7 integrin LacZ reporter signal relative to DMSO): 1.12
fold induction at 5 µM ([2]; 5 uM, read-out: Burkin Assay in Myotubes, α7 integrin LacZ reporter signal relative to DMSO): 1.11
fold induction at 10 µM ([2]; 10 uM, read-out: Burkin Assay in Myotubes, α7 integrin LacZ reporter signal relative to DMSO): 1.34
fold induction at 20 µM ([2]; 20 uM, read-out: Burkin Assay in Myotubes, α7 integrin LacZ reporter signal relative to DMSO): 1.16
fold induction at 40 µM ([2]; 40 uM, read-out: Burkin Assay in Myotubes, α7 integrin LacZ reporter signal relative to DMSO): 1.16
fold induction at 0.5 µM ([3]; 0.5 uM, read-out: Burkin Assay in Myoblasts, signal relative to DMSO): 1.05
fold induction at 1 µM ([3]; 1 uM, read-out: Burkin Assay in Myoblasts, signal relative to DMSO): 1.2
fold induction at 5 µM ([3]; 5 uM, read-out: Burkin Assay in Myoblasts, signal relative to DMSO): 1.18
fold induction at 10 µM ([3]; 10 uM, read-out: Burkin Assay in Myoblasts, signal relative to DMSO): 1.31
fold induction at 20 µM ([3]; 20 uM, read-out: Burkin Assay in Myoblasts, signal relative to DMSO): 1.29
fold induction at 40 µM ([3]; 40 uM, read-out: Burkin Assay in Myoblasts, signal relative to DMSO): 1.4

Cc1ccc(-c2nc(C)sc2CC(=O)OCC(=O)Nc2c(F)cccc2F)cc1 [MLS000388722-01]
CMV-LACZ in Myotubes, signal relative to DMSO [1, 4]: 0.9569
CMV-LACZ in Myotubes, signal relative to DMSO [1, 5]: 1.067
CMV-LACZ in Myotubes, signal relative to DMSO [1, 6]: 1.085
CMV-LACZ in Myotubes, signal relative to DMSO [1, 7]: 0.8668
Burkin Assay in Myotubes (signal relative to DMSO) ([2]; 0.5 uM): 0.9225
Burkin Assay in Myotubes (signal relative to DMSO) ([2]; 1 uM): 0.9369
Burkin Assay in Myotubes (signal relative to DMSO) ([2]; 5 uM): 1.032
Burkin Assay in Myotubes (signal relative to DMSO) ([2]; 10 uM): 1.042
Burkin Assay in Myotubes (signal relative to DMSO) ([2]; 20 uM): 0.8001
Burkin Assay in Myotubes (signal relative to DMSO) ([2]; 40 uM): 0.9404
Burkin Assay in Myoblasts, value relative to DMSO ([3]; 0.5 uM): 0.93
Burkin Assay in Myoblasts, value relative to DMSO ([3]; 1 uM): 1.1187
Burkin Assay in Myoblasts, value relative to DMSO ([3]; 5 uM): 1.1052
Burkin Assay in Myoblasts, value relative to DMSO ([3]; 10 uM): 1.1175
Burkin Assay in Myoblasts, value relative to DMSO ([3]; 20 uM): 0.9101
Burkin Assay in Myoblasts, value relative to DMSO ([3]; 40 uM): 0.9407

COc1ccc(N2CCN(CCC3Oc4cc([N+](=O)[O-])ccc4NC3=O)CC2)cc1 (stereo not drawn) [MLS000696445-01]
CMV-LACZ in Myotubes, signal relative to DMSO [1, 4]: 1.268
CMV-LACZ in Myotubes, signal relative to DMSO [1, 5]: 1.011
CMV-LACZ in Myotubes, signal relative to DMSO [1, 6]: 1.122
CMV-LACZ in Myotubes, signal relative to DMSO [1, 7]: 0.924
Burkin Assay in Myotubes, α7 integrin LacZ reporter signal relative to DMSO ([2]; 0.5 uM): 0.8602
Burkin Assay in Myotubes, α7 integrin LacZ reporter signal relative to DMSO ([2]; 1 uM): 0.8637
Burkin Assay in Myotubes, α7 integrin LacZ reporter signal relative to DMSO ([2]; 5 uM): 0.9714
Burkin Assay in Myotubes, α7 integrin LacZ reporter signal relative to DMSO ([2]; 10 uM): 0.625
Burkin Assay in Myotubes, α7 integrin LacZ reporter signal relative to DMSO ([2]; 20 uM): 0.5843
Burkin Assay in Myotubes, α7 integrin LacZ reporter signal relative to DMSO ([2]; 40 uM): 0.8433
Burkin Assay in Myoblasts, signal relative to DMSO ([3]; 0.5 uM): 1.013
Burkin Assay in Myoblasts, signal relative to DMSO ([3]; 1 uM): 0.5621
Burkin Assay in Myoblasts, signal relative to DMSO ([3]; 5 uM): 0.867
Burkin Assay in Myoblasts, signal relative to DMSO ([3]; 10 uM): 0.8807
Burkin Assay in Myoblasts, signal relative to DMSO ([3]; 20 uM): 0.813
Burkin Assay in Myoblasts, signal relative to DMSO ([3]; 40 uM): 0.807

COCCn1c(=N)c(S(=O)(=O)c2ccc(Br)cc2)cc2c(=O)n3ccccc3nc21 [MLS001141113-01]
CMV-LACZ in Myotubes (β-galactosidase activity relative to DMSO) ([1]; 5 uM): 1.134
CMV-LACZ in Myotubes (β-galactosidase activity relative to DMSO) ([1]; 10 uM): 1.383
CMV-LACZ in Myotubes (β-galactosidase activity relative to DMSO) ([1]; 20 uM): 0.9823
CMV-LACZ in Myotubes (β-galactosidase activity relative to DMSO) ([1]; 40 uM): 1.913
fold induction at 0.5 µM [2, 8]: 1.04
fold induction at 1 µM [2, 9]: 0.854
fold induction at 5 µM [2, 10]: 1.05
fold induction at 10 µM [2, 11]: 0.929
fold induction at 20 µM [2, 12]: 0.887
fold induction at 40 µM [2, 13]: 0.812
fold induction at 0.5 µM [3, 14]: 1.23
fold induction at 1 µM [3, 15]: 1.06
fold induction at 5 µM [3, 16]: 1.08
fold induction at 10 µM [3, 17]: 1.07
fold induction at 20 µM [3, 18]: 0.915
fold induction at 40 µM [3, 19]: 0.56

COc1cc(NC(=O)CN(C)S(=O)(=O)c2ccc3c(c2)CC(C)N3C(C)=O)cc(OC)c1OC (stereo not drawn) [MLS001122792-01]
CMV-LACZ in Myotubes, signal relative to DMSO [1, 4]: 0.8137
CMV-LACZ in Myotubes, signal relative to DMSO [1, 5]: 0.9675
CMV-LACZ in Myotubes, signal relative to DMSO [1, 6]: 0.9969
CMV-LACZ in Myotubes, signal relative to DMSO [1, 7]: 0.7254
Burkin Assay in Myotubes (signal relative to DMSO) ([2]; 0.5 uM): 1.192
Burkin Assay in Myotubes (signal relative to DMSO) ([2]; 1 uM): 1.032
Burkin Assay in Myotubes (signal relative to DMSO) ([2]; 5 uM): 1.102
Burkin Assay in Myotubes (signal relative to DMSO) ([2]; 10 uM): 0.6414
Burkin Assay in Myotubes (signal relative to DMSO) ([2]; 20 uM): 1.068
Burkin Assay in Myotubes (signal relative to DMSO) ([2]; 40 uM): 0.8522
Burkin Assay in Myoblasts, value relative to DMSO ([3]; 0.5 uM): 0.9702
Burkin Assay in Myoblasts, value relative to DMSO ([3]; 1 uM): 0.8787
Burkin Assay in Myoblasts, value relative to DMSO ([3]; 5 uM): 0.913
Burkin Assay in Myoblasts, value relative to DMSO ([3]; 10 uM): 0.8643
Burkin Assay in Myoblasts, value relative to DMSO ([3]; 20 uM): 0.9989
Burkin Assay in Myoblasts, value relative to DMSO ([3]; 40 uM): 0.8058

CCS(=O)(=O)N1CCN(c2ccc([N+](=O)[O-])c(NCC3CCCO3)c2)CC1 (stereo not drawn) [MLS000693370-01]
CMV-LACZ in Myotubes (β-galactosidase activity relative to DMSO) ([1]; 5 uM): 0.9783
CMV-LACZ in Myotubes (β-galactosidase activity relative to DMSO) ([1]; 10 uM): 0.9621
CMV-LACZ in Myotubes (β-galactosidase activity relative to DMSO) ([1]; 20 uM): 0.9947
CMV-LACZ in Myotubes (β-galactosidase activity relative to DMSO) ([1]; 40 uM): 1.1136
fold induction at 0.5 µM [2, 8]: 1.11
fold induction at 1 µM [2, 9]: 1.13
fold induction at 5 µM [2, 10]: 1.16
fold induction at 10 µM [2, 11]: 1.28
fold induction at 20 µM [2, 12]: 1.15
fold induction at 40 µM [2, 13]: 1.25
fold induction at 0.5 µM [3, 14]: 0.864
fold induction at 1 µM [3, 15]: 0.8
fold induction at 5 µM [3, 16]: 0.887
fold induction at 10 µM [3, 17]: 1.06
fold induction at 20 µM [3, 18]: 0.951
fold induction at 40 µM [3, 19]: 0.937
